Data as given in PMC12010006, “Subnanomolar MAS-related G protein-coupled receptor-X2/B2 antagonists with efficacy in human mast cells and disease models” (Signal Transduction and Targeted Therapy, 2025).
“Also recorded” adds a separate entry of the source.

Tests used:
[1] = test system: LAD2 cells; experiment: MTT assay, LAD2 cells; format: cell-based, human; details: 24 h; concentrations up to 6-fold higher than IC50 (3, 10, 30 nM)
Experimental: Fig. 6 PSB-172656 inhibits MRGPRX2-mediated mast cell degranulation. a LAD2 cells were incubated with buffer (control) or various concentrations of MRGPRX2 antagonist PSB-172656, subsequently exposed to substance P (SP, 0.3 µM), and β-hexosaminidase release was measured. […] Data are expressed as means ± SEM of 3 biological replicates. Statistical significance was determined by one-way ANOVA (Tukey’s multiple comparisons), compared to the effect of SP in the absence of PSB-172656 (P-value*** < 0.001). b Potential cytotoxicity of PSB-172656 was determined in 3-[4,5-dimethylthiazol-2-yl]-2,5-diphenyl tetrazolium bromide (MTT) assays performed on LAD2 cells. Cells were treated with different concentrations of PSB-172656 for 24 h at 37 °C, and the optic density value was determined at 570 nm (the viability of untreated cells corresponds to 100% cell viability). […] Mean fluorescence intensity (MFI) levels of e CD107a and f CD63 are depicted. […] Degranulation is characterized by the release of β-hexosaminidase, expressed as a percentage of the total content. h Human skin MCs were incubated with different concentrations of PSB-172656 for 30 min followed by stimulation with CST-14 (1 µM). Statistical significance was calculated by one-way ANOVA (Tukey’s multiple comparisons), compared to agonist without PSB-172656 (P-value* < 0.05, […], and P-value**** < 0.001) […]

[2] = test system: mouse tracheal rings; experiment: Isometric force measurements of mouse tracheal rings on wire-myograph; details: 100 µM, 10 min pre-treatment, C48/80 30 µg/mL
Experimental: The MRGPRX2/MRGPRB2 agonist C48/80 was previously reported to induce tracheal contractions in WT mice, a response that was absent in mice with a frameshift mutation in Mrgprb2.[53] We investigated whether this effect could be blocked by PSB-172656, the potent MRGPRX2/MRGPRB2 antagonist. Therefore, the force of tracheal contractions induced by C48/80 (30 µg/mL) in mouse tracheal rings was measured using a wire myograph, confirming the compound’s ability to […] tracheal contractions (Fig. 7c, d).
Isometric force measurements were performed as described previously.[68] In detail, tracheas of C57BL/6 mice were isolated and cut into rings in cold low-calcium physiological saline solution (PSS), containing 118 mM NaCl, 5 mM KCl, 1.2 mM MgCl2, 1.5 mM NaH2PO4, 0.16 mM CaCl2, 10 mM glucose and 24 mM Hepes (pH 7.4). Rings were mounted on a wire-myograph (Multi Myograph 620 M, Danish Myo Technology, Aarhus, Denmark) and pre-stretched to 5 mN in PSS, containing 118 mM NaCl, 5 mM KCl, 1.2 mM MgCl2, 1.5 mM NaH2PO4, 1.6 mM CaCl2, 10 mM glucose, and 24 mM Hepes (pH 7.4). After equilibration for 20 min, maximal constriction was induced by methacholine (MCh, 10 μM, A2251, Sigma-Aldrich, Germany). […] Force amplitudes were always analyzed at the strongest contraction of tracheal rings. […] Statistical significance was determined by an unpaired Student’s t-test, *P < 0.05.

[3] = target: T1, MRGPRX2 (Homo sapiens, UniProt Q96LB1); experiment: Ca2+ mobilization in LAD2 cells; format: cell-based; details: stimulation with clomipramine (16.0 µM), paroxetine (18.1 µM), desipramine (34.4 µM); listed as PSB-172656
T1 sequence (Q96LB1 1-330): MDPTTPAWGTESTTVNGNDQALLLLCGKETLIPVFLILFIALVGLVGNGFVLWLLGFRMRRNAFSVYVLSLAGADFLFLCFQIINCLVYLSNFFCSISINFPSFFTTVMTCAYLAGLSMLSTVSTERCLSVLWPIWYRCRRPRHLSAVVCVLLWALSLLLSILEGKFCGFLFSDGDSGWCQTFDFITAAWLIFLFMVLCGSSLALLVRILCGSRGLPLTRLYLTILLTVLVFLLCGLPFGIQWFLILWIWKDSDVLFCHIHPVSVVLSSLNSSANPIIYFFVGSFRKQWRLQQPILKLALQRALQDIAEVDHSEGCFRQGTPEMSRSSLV
Description: PSB-172656 inhibited MRGPRX2-mediated Ca^2+ mobilization in LAD2 cells (see Supplementary Fig. S4).
Blocking of MRGPRX2 by the selective antagonist PSB-172656. […] Arrows indicate addition of stimulus; graphs represent means ± SEM of three independent experiments.

## CCc1c(C(C)C)[nH]c2nc3cc(F)c(F)cc3n2c1=O [Compound 24, 3-ethyl-7,8-difluoro-2-isopropylbenzo[4,5]imidazo [1,2-a] pyrimidin-4(1H)-one]
[1]
  toxicity in LAD2 cells (MTT): did not exhibit toxicity
[2]; listed as PSB-172565
  effect on C48/80-induced tracheal contractions: potently blocks tracheal contractions
[2]; listed as PSB-172656
  effect on C48/80-induced tracheal contractions: effectively blocked the contractions
[3]
  effect on MRGPRX2-mediated Ca2+ mobilization in LAD2 cells: decreased Ca^2+ mobilization; also recorded: inhibited
